Values joined by “and” are separate entries in the source; they are usually repeats but may differ in a detail not shown here. Equal entries are not always repeated.
Columns and labels:
Test in all cases: [3H]IMI dissociation rate assay
Type in all cases: binding
SERT A486E-K490A = target: T1, SERT A486E-K490A (Homo sapiens, UniProt P31645, A486E/K490A); details: for [^3H]IMI dissociation relative to control (source data Fig 4B): A486E-K490A
T1 construct: expressed in transfected cells; host or cells: COS-7
T1 sequence (P31645 whole entry A486E/K490A): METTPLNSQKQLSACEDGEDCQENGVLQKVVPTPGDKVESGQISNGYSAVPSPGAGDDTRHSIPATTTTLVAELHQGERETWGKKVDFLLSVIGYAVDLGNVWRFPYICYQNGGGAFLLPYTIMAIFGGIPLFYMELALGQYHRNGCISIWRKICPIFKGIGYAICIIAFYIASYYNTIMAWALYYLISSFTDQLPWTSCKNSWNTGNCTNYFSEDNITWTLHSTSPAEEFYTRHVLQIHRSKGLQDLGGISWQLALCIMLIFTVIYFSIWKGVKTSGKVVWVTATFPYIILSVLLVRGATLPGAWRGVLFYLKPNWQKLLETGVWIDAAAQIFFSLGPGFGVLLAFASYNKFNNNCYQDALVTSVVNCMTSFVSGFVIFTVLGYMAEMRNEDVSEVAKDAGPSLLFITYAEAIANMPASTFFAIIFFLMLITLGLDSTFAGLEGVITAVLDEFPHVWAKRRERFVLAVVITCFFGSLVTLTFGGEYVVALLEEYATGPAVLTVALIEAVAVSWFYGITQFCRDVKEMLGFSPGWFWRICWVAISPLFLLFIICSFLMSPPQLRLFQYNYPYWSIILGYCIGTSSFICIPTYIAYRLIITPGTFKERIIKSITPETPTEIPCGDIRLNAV
Description: (§1) All mutations were confirmed by DNA sequencing. The used primers were
(§2) The allosteric potency was calculated as previously described.

SERT F556L = target: T2, SERT F556L (Homo sapiens, UniProt P31645, F556L)
T2 construct: expressed in transfected cells; host or cells: COS-7
Description: as §1, §2

SERT I179F = target: T3, SERT I179F (Homo sapiens, UniProt P31645, I179F)
T3 construct: expressed in transfected cells; host or cells: COS-7
T3 sequence (P31645 whole entry I179F): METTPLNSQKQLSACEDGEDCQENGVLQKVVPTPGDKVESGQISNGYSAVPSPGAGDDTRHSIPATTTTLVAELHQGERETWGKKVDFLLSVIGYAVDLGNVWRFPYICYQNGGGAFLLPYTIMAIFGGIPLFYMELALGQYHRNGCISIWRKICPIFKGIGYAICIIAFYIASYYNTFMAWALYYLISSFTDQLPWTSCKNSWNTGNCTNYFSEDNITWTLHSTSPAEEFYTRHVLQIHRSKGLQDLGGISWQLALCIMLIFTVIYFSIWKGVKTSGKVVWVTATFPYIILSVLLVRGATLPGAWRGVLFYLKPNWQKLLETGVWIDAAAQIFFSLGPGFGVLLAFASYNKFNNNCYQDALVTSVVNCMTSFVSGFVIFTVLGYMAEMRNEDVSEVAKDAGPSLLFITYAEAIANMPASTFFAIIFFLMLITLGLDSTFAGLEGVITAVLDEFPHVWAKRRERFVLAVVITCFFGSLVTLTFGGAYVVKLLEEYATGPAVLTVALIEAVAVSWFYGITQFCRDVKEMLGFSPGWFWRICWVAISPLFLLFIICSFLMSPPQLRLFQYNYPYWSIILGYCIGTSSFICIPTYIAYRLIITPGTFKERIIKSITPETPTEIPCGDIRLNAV
Description: as §1, §2

SERT A486E = target: T4, SERT A486E (Homo sapiens, UniProt P31645, A486E)
T4 construct: expressed in transfected cells; host or cells: COS-7
Description: as §1, §2

SERT E494K = target: T5, SERT E494K (Homo sapiens, UniProt P31645, E494K)
T5 construct: expressed in transfected cells; host or cells: COS-7
T5 sequence (P31645 whole entry E494K): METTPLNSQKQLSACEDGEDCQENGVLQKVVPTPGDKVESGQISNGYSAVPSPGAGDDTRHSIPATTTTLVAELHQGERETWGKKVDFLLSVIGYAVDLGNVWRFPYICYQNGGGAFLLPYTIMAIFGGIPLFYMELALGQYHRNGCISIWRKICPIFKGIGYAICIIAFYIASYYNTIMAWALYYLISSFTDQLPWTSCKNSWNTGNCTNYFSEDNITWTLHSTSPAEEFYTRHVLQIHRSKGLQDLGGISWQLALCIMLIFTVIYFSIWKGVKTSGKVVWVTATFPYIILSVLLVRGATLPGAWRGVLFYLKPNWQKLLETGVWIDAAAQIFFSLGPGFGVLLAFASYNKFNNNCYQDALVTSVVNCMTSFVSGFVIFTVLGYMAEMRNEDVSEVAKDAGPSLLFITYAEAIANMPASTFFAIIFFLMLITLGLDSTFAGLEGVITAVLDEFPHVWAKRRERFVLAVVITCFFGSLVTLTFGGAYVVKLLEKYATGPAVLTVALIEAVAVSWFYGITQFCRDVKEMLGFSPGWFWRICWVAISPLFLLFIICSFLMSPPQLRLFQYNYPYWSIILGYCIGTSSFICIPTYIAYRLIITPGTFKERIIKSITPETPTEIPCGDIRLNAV
Description: as §1, §2

SERT D328N = target: T6, SERT D328N (Homo sapiens, UniProt P31645, D328N)
T6 construct: expressed in transfected cells; host or cells: COS-7
Description: as §1, §2

SERT F556R = target: T7, SERT F556R (Homo sapiens, UniProt P31645, F556R)
T7 construct: expressed in transfected cells; host or cells: COS-7
T7 sequence (P31645 whole entry F556R): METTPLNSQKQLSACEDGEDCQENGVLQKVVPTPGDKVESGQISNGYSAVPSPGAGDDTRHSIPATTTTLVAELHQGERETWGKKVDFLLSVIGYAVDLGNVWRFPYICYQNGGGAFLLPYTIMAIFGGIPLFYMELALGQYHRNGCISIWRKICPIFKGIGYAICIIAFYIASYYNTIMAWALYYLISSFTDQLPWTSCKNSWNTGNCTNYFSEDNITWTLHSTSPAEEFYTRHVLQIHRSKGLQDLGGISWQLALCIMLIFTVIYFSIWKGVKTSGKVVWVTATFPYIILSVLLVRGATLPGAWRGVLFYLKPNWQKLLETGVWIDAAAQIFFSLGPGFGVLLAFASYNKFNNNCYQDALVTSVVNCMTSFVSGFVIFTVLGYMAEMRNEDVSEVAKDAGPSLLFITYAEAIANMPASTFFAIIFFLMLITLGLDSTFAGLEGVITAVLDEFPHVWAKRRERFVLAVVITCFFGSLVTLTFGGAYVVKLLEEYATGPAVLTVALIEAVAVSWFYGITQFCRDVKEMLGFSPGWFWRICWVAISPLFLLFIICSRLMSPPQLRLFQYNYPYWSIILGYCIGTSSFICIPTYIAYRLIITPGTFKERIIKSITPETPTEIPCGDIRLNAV
Description: as §1, §2

SERT L406E = target: T8, SERT L406E (Homo sapiens, UniProt P31645, L406E)
T8 construct: expressed in transfected cells; host or cells: COS-7
T8 sequence (P31645 whole entry L406E): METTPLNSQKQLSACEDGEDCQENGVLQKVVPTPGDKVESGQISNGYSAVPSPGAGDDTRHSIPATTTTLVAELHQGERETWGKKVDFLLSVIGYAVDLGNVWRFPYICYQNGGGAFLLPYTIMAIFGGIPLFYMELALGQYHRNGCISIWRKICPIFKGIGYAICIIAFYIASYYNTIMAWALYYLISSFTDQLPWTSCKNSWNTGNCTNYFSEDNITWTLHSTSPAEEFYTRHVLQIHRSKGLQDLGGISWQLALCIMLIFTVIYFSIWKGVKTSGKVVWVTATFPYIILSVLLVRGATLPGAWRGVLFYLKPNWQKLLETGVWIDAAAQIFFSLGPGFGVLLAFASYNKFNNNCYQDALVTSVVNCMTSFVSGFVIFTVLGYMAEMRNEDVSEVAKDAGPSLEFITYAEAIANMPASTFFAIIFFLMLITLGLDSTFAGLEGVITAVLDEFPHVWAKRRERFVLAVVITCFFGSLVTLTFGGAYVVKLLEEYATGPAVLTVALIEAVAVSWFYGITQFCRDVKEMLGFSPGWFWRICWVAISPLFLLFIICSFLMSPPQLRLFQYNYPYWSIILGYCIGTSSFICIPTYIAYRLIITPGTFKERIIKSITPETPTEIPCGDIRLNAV
Description: as §1, §2

SERT R104K = target: T9, SERT R104K (Homo sapiens, UniProt P31645, R104K)
T9 construct: expressed in transfected cells; host or cells: COS-7
T9 sequence (P31645 whole entry R104K): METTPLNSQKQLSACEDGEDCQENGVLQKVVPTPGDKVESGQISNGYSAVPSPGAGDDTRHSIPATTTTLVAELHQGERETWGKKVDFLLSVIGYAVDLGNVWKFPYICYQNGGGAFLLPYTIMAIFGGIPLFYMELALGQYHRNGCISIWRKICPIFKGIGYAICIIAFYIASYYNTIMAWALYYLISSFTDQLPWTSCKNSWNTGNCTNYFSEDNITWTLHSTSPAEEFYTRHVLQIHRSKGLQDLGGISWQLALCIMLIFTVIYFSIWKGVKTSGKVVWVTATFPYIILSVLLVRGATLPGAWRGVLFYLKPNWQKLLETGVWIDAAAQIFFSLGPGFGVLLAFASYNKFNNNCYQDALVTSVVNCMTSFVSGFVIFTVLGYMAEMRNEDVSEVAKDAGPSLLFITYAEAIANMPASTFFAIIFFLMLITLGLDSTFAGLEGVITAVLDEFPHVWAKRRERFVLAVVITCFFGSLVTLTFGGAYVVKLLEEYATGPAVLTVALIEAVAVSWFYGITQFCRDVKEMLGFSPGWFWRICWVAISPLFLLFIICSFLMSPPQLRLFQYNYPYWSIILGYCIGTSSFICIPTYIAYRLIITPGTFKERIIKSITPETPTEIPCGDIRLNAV
Description: as §1, §2

SERT A331D = target: T10, SERT A331D (Homo sapiens, UniProt P31645, A331D)
T10 construct: expressed in transfected cells; host or cells: COS-7
T10 sequence (P31645 whole entry A331D): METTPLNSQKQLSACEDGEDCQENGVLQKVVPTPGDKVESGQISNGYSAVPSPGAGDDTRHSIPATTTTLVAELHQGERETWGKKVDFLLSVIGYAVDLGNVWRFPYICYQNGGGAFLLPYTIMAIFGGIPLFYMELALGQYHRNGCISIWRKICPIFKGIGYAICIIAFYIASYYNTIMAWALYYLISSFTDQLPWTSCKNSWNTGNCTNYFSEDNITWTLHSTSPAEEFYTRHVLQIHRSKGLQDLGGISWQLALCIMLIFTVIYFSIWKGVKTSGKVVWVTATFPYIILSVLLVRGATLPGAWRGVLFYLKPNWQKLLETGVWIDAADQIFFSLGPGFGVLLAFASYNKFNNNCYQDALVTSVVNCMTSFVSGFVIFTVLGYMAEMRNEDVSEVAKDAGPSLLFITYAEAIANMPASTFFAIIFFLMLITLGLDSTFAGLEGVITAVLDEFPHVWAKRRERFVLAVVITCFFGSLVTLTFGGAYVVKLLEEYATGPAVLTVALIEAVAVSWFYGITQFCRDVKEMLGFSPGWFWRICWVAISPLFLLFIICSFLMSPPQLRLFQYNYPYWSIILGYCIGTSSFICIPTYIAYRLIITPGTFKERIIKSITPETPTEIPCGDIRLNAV
Description: as §1, §2

SERT E494Q = target: T11, SERT E494Q (Homo sapiens, UniProt P31645, E494Q)
T11 construct: expressed in transfected cells; host or cells: COS-7
T11 sequence (P31645 whole entry E494Q): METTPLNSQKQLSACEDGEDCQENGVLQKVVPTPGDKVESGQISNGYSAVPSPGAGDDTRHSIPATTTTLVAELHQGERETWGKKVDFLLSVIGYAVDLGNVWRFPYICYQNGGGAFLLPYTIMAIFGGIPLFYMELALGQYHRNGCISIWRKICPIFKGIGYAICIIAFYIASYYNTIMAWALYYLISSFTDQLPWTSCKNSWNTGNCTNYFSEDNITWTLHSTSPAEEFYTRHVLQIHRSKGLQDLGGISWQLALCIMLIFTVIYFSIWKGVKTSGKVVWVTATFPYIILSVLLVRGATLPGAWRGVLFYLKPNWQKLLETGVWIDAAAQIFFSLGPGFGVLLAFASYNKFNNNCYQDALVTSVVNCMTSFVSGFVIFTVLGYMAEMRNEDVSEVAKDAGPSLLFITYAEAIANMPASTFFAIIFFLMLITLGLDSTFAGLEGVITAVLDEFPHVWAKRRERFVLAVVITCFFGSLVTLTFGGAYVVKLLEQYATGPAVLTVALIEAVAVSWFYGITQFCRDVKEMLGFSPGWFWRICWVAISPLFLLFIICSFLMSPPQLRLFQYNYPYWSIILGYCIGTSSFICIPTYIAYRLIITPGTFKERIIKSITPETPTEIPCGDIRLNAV

`NC(=O)c1ccc2c(c1)CO[C@@]2(CCCN1CCC(c2ccc3ccc(=O)[nH]c3c2)CC1)c1ccc(F)cc1` [Lu AF60097, (S)-1-(4-fluorophenyl)-1-(3-(4-(2-oxo-1,2-dihydroquinolin-7-yl)piperidin-1-yl)propyl)-1,3-dihydroisobenzofuran-5-carboxamide] was tested, and the “[^3H]IMI dissociation relative to control (source data Fig 4B)” value (SERT A486E-K490A; log conc -6.386) was 0.93 and 0.8402 and 0.7554, the “[^3H]IMI dissociation relative to control (source data Fig 4B)” value (SERT A486E-K490A; log conc -6.863) was 1.01 and 0.967 and 0.9554 and the “[^3H]IMI dissociation relative to control (source data Fig 4B)” value (SERT A486E-K490A; log conc -7.34) was 1 and 1.03 and 0.8514. For the same compound, the “[^3H]IMI dissociation relative to control (source data Fig 4B)” value (SERT A486E-K490A; log conc -7.817) was 1.04 and 0.999 and 0.8949, the IC50 (SERT A486E-K490A; SERT A486E-K490A, read-out: Lu AF60097 allosteric potency ([^3H]IMI dissociation IC50)) was 2400 nM and the “ΔAP (mut/WT), change in allosteric potency relative to SERT WT” value (SERT F556L; F556L, [^3H]IMI dissociation) was 10. For the same compound, the IC50 (SERT F556L; SERT F556L (TM11), read-out: Lu AF60097 allosteric potency ([^3H]IMI dissociation IC50)) was 330 nM, the “ΔAP (mut/WT), change in allosteric potency relative to SERT WT” value (SERT I179F; I179F, [^3H]IMI dissociation) was 14 and the “[^3H]IMI dissociation relative to control (source data Fig 4B)” value (SERT I179F; I179F, log conc -7.817) was 0.8727 and 0.9098. The IC50 (SERT I179F; SERT I179F (TM3), read-out: Lu AF60097 allosteric potency ([^3H]IMI dissociation IC50)) was 440 nM, the “ΔAP (mut/WT), change in allosteric potency relative to SERT WT” value (SERT A486E; A486E, [^3H]IMI dissociation) was 15 and the IC50 (SERT A486E; SERT A486E (TM10), read-out: Lu AF60097 allosteric potency ([^3H]IMI dissociation IC50)) was 470 nM. For the same compound, the “ΔAP (mut/WT), change in allosteric potency relative to SERT WT” value (SERT E494K; E494K, [^3H]IMI dissociation) was 286, the “[^3H]IMI dissociation relative to control (source data Fig 4B)” value (SERT E494K; E494K, log conc -5.432) was 0.0801 and 0.1174 and 0.0764 and the “[^3H]IMI dissociation relative to control (source data Fig 4B)” value (SERT E494K; E494K, log conc -5.91) was 0.1958 and 0.2217 and 0.1263. The “[^3H]IMI dissociation relative to control (source data Fig 4B)” value (SERT E494K; E494K, log conc -6.386) was 0.3078 and 0.3762 and 0.3174, the “[^3H]IMI dissociation relative to control (source data Fig 4B)” value (SERT E494K; E494K, log conc -6.863) was 0.5705 and 0.5743 and 0.4488 and the “[^3H]IMI dissociation relative to control (source data Fig 4B)” value (SERT E494K; E494K, log conc -7.34) was 0.7153 and 0.7476 and 0.7791. The “[^3H]IMI dissociation relative to control (source data Fig 4B)” value (SERT E494K; E494K, log conc -7.817) was 0.8258 and 0.83 and 0.9008, the “[^3H]IMI dissociation relative to control (source data Fig 4B)” value (SERT E494K; E494K, log conc -8.294) was 0.8606 and 0.9262 and 0.8913 and the IC50 (SERT E494K; SERT E494K (TM10), read-out: Lu AF60097 allosteric potency ([^3H]IMI dissociation IC50)) was 8.9 µM. The “ΔAP (mut/WT), change in allosteric potency relative to SERT WT” value (SERT D328N; D328N, [^3H]IMI dissociation) was 1.7, the IC50 (SERT D328N; SERT D328N (TM6), read-out: Lu AF60097 allosteric potency ([^3H]IMI dissociation IC50)) was 54 nM and the “ΔAP (mut/WT), change in allosteric potency relative to SERT WT” value (SERT F556R; F556R, [^3H]IMI dissociation) was over 300. For the same compound, the “Lu AF60097 allosteric potency ([^3H]IMI dissociation IC50)” value (SERT F556R; SERT F556R (TM11)) was “complete ablation of the allosteric potency”, the IC50 (SERT F556R; SERT F556R (TM11), read-out: Lu AF60097 allosteric potency ([^3H]IMI dissociation IC50)) was at least 10 µM and the “ΔAP (mut/WT), change in allosteric potency relative to SERT WT” value (SERT L406E; L406E, [^3H]IMI dissociation) was 21. For the same compound, the “[^3H]IMI dissociation relative to control (source data Fig 4B)” value (SERT L406E; L406E, log conc -5.91) was 0.3505 and 0.3638 and 0.3072, the “[^3H]IMI dissociation relative to control (source data Fig 4B)” value (SERT L406E; L406E, log conc -6.386) was 0.6157 and 0.6402 and 0.5827 and the “[^3H]IMI dissociation relative to control (source data Fig 4B)” value (SERT L406E; L406E, log conc -6.863) was 0.8533 and 0.8586 and 0.8107. The “[^3H]IMI dissociation relative to control (source data Fig 4B)” value (SERT L406E; L406E, log conc -7.34) was 0.9622 and 0.9861 and 1.0073, the “[^3H]IMI dissociation relative to control (source data Fig 4B)” value (SERT L406E; L406E, log conc -7.817) was 1.016 and 1.0012 and 1.0446 and the IC50 (SERT L406E; SERT L406E (EL4), read-out: Lu AF60097 allosteric potency ([^3H]IMI dissociation IC50)) was 650 nM. The “ΔAP (mut/WT), change in allosteric potency relative to SERT WT” value (SERT R104K; R104K, [^3H]IMI dissociation) was 19, the “[^3H]IMI dissociation relative to control (source data Fig 4B)” value (SERT R104K; R104K, log conc -5.91) was 0.3316 and 0.2892 and 0.4871 and 0.3865 and the “[^3H]IMI dissociation relative to control (source data Fig 4B)” value (SERT R104K; R104K, log conc -6.386) was 0.5872 and 0.4706 and 0.6618 and 0.5459. For the same compound, the “[^3H]IMI dissociation relative to control (source data Fig 4B)” value (SERT R104K; R104K, log conc -6.863) was 0.8956 and 0.6502 and 0.7387 and 0.7045, the “[^3H]IMI dissociation relative to control (source data Fig 4B)” value (SERT R104K; R104K, log conc -7.34) was 1.0439 and 0.7759 and 0.8174 and 0.7536 and the “[^3H]IMI dissociation relative to control (source data Fig 4B)” value (SERT R104K; R104K, log conc -7.817) was 0.9753 and 0.7981 and 0.836 and 0.9683. The IC50 (SERT R104K; SERT R104K (TM1), read-out: Lu AF60097 allosteric potency ([^3H]IMI dissociation IC50)) was 630 nM, the “ΔAP (mut/WT), change in allosteric potency relative to SERT WT” value (SERT A331D; A331D, [^3H]IMI dissociation) was 293 and the “[^3H]IMI dissociation relative to control (source data Fig 4B)” value (SERT A331D; A331D, log conc -4.478) was 0.2078 and 0.1902 and 0.1898. The “[^3H]IMI dissociation relative to control (source data Fig 4B)” value (SERT A331D; A331D, log conc -4.955) was 0.4404 and 0.4549 and 0.4274, the “[^3H]IMI dissociation relative to control (source data Fig 4B)” value (SERT A331D; A331D, log conc -5.432) was 0.7451 and 0.6969 and 0.749 and the “[^3H]IMI dissociation relative to control (source data Fig 4B)” value (SERT A331D; A331D, log conc -5.91) was 0.8665 and 0.8882 and 0.9518. For the same compound, the “[^3H]IMI dissociation relative to control (source data Fig 4B)” value (SERT A331D; A331D, log conc -6.386) was 0.9951 and 1.0052 and 1.0336, the “[^3H]IMI dissociation relative to control (source data Fig 4B)” value (SERT A331D; A331D, log conc -6.863) was 1.0294 and 1.1129 and 0.9351 and the “[^3H]IMI dissociation relative to control (source data Fig 4B)” value (SERT A331D; A331D, log conc -7.34) was 0.9855 and 0.9441 and 1.0485. For the same compound, the IC50 (SERT A331D; SERT A331D (TM6), read-out: Lu AF60097 allosteric potency ([^3H]IMI dissociation IC50)) was 9.1 µM, the “ΔAP (mut/WT), change in allosteric potency relative to SERT WT” value (SERT E494Q; E494Q, [^3H]IMI dissociation) was 5 and the IC50 (SERT E494Q; SERT E494Q, read-out: Allosteric potency inhibition of [^3H]IMI dissociation (IC50)) was 170 nM.
